Measurements taken from patent US6602865B1, “Pyridazino(4,5-b)(1,5)oxazepinone, -thiazepinone and -diazepinone compounds” (IVAX Drug Research Institute, Ltd., priority 1998, dated 2003).

system: scopolamine-induced memory-deficit in rats; assay: Passive avoidance test, scopolamine-induced memory deficit in rats; format: in vivo, rat; conditions: oral dose 50 mg/kg
Protocol: The memory-enhancing effect of the compounds according to the invention was measured by counter-balancing the scopolamine-induced memory-deficit in rats, with oral doses of 50 mg/kg, in the passive avoidance test published by Cumin, R. et al. [Psychopharmacology, 78, 104 (1982)].

`O=c1c2c(cnn1CC=Cc1ccccc1)N(Cc1ccccc1)CCCO2` [Example 7, 5-Benzyl-8-cynnamyl-2,3,4,5-tetrahydro-9(8H)-pyridazino[4,5-b][1,5]oxazepinone] was tested, and the “Memory improvement compared to amnesic control (%)” value was 250%.

system: AMPA; assay: AMPA-induced spreading depression of chick retina; conditions: 20 μM
Protocol: The AMPA antagonistic effect of the compounds was also tested on spreading depression of chick retina (Sheardown, M. J.: Brain Res., 1993, 607, 189) in a concentration of 20 μM.

Going from `Cn1ncc2c(c1=O)SCCNC2Cc1ccc(Cl)cc1` (stereo not shown) [Example 12, 5-(4-Chlorobenzyl)-8-methyl-2,3,4,5-tetrahydro-9(8H)-pyridazino[4,5-b]-[1,5]thiazepinone] to `Cn1ncc2c(c1=O)SCCNC2Cc1ccccc1` (stereo not shown) [Example 11, 5-Benzyl-8-methyl-2,3,4,5-tetrahydro-9(8H)-pyridazino[4,5-b][1,5]thiazepinone], the “Antagonistic effect on AMPA-induced spreading depression (%)” value (from here on “Antagonistic effect … (%)”) falls from 32% to 28%.

Going from `O=c1c2c(cnn1CC=Cc1ccccc1)N(Cc1ccccc1)CCCO2` [Example 7, 5-Benzyl-8-cynnamyl-2,3,4,5-tetrahydro-9(8H)-pyridazino[4,5-b][1,5]oxazepinone] to `O=c1c2c(cnn1-c1ccccc1)C(Cc1ccccc1)NCCS2` (stereo not shown) [Example 13, 5-Benzyl-8-phenyl-2,3,4,5-tetrahydro-9(8H)-pyridazino[4,5-b]-[1,5]thiazepinone], the “Antagonistic effect … (%)” value rises from 16% to 48%.

Compared with `Cn1ncc2c(c1=O)OCCNC2Cc1ccccc1` (stereo not shown) [Example 4, 5-Benzyl-8-methyl-2,3,4,5-tetrahydro-9(8H)-pyridazino[4,5-b][1,5]oxazepinone], `Cn1ncc2c(c1=O)SCCNC2C(=O)c1ccccc1` (stereo not shown) [Example 3, 5-Benzoyl-8-methyl-2,3,4,5-tetrahydro-9(8H)-pyridazino[4,5-b][1,5]thiazepinone] is lower in “Antagonistic effect … (%)” value: 17% for the first, 10% for the second.
